The results in this text go back to patent US20240390377A1, “COMPOSITION FOR THE PREVENTION OR TREATMENT OF NEURODEGENERATIVE OR MOTOR NEURON DISEASES COMPRISING HALOFUGINONE AS AN ACTIVE INGREDIENT” (CURAMYS CO., LTD., priority 2022, published 2024).

Molecules are shown by their SMILES.

In one test the test system is C2C12 cells. Description: Western blot analysis of C2C12 myoblasts (TGF-β1 stimulation, halofuginone treatment). The class given is cell-based, mouse. How it is done: Specifically, C2C12 cells (CRL-1772) were purchased from the American Type Culture Collection (ATCC) and maintained in DMEM medium (Welgene) containing 10% (v/v) fetal bovine serum (FBS; Gibco) and 1% penicillin-streptomycin (P/S; Gibco) at 37° C. under 5% CO2 conditions. The C2C12 cells were seeded in 6-well plates at a density of 3×10^5 cells per well and allowed to adhere for 24 hours. Subsequently, the medium was replaced with serum-free medium after 24 hours, followed by stimulation with 5 ng/ml rhTGF-β1 (recombinant human TGF-β1; R&D Systems). After stimulation, the cells were treated with various concentrations (0 [control], or 1, 2.5, 5 [low dose], 10 [high dose], 20, 50, 100 ng/ml) of halofuginone (Sigma) in serum-free medium for 24 hours.
Specifically, the lumbar spinal cord or knee joint of the mouse of Example 6 was separated and immediately frozen at −80° C. Each lumbar spinal cord or knee joint was then homogenized and chemically treated to obtain cells. The chemically treated cells, the C2C12 cells of Example 1 or the fibroblasts of Example 5 were dissolved in a RIPA buffer (Thermo, MA, USA) with a protease inhibitor and a phosphatase inhibitor (Roche, IN, USA) and incubated on ice for 30 minutes. After centrifugation of the lysate at 13,000 rpm at 4° C. for 20 min, insoluble substances were removed. Protein concentrations were measured by BCA analysis (Pierce Biotechnology). Equal volumes of cell lysate were loaded onto SDS-PAGE gels for electrophoresis, and transferred onto nitrocellulose membranes (Amersham Protran 0.2 um NC, Amersham Pharmacia Biotech, Piscataway, NJ, USA). The membranes were then blocked with 5% (w/v) skimmilk in 1×TBST for 1 h at room temperature. After blocking, anti-RB-actin antibody (1:5000; Santa Cruz, cat #sc47778), anti-Smad2 antibody (1:1000; Cell Signaling, cat #5339), anti-p-Smad2 antibody (1:1000; Cell Signaling, cat #3108), anti-TGF-β1 antibody (1:1000; Santa Cruz, cat #sc130348), anti-α-SMA antibody (1:10000; abcam cat #ab7817), anti-MyoD antibody (1:1000; cat #sc377460), anti-collagen|antibody (1:1000; abcam cat #ab21286), anti-cleaved caspase-3 antibody (1:1000; Cell Signaling, cat #9661), anti-bax antibody (1:500; Santa Cruz, cat #sc493), anti-bcl2 antibody (1:1000; Novus Biologics, cat #NB100-56098), anti-ChAT antibody (1:1000; Millipore, cat #AB144) were treated and incubated overnight at 4° C. Subsequently, membranes were washed several times with 1×TBST and incubated with horseradish peroxidase-conjugated secondary antibodies (anti-mouse, rabbit or goat, 1:5000; GE Healthcare) in blocking buffer for 1 h at room temperature (RT). The membranes were then washed, briefly incubated with the SuperSignal West Pico Plus Chemical Substructure (Pierce Biotechnology) according to the manufacturer's procedure, and quantified with an image analyzer (Amersham Pharmacia Biotech, Piscataway, NJ, USA). β-actin was used as an internal control group. The concentration measurement of protein intensity was quantified using Image J (National Institutes of Health).
Specifically, after treating C2C12 cells with TGF-β1 for 24 hours as in Example 1, real-time qRT-PCR was performed in the same manner as in Example 11 to confirm TGF-β1, 2 and 3, α-SMA and MyoD mRNA expression (FIG. 2a), and Western blot analysis was performed in the same manner as in Example 12 to confirm autocrine expression of TGF-β1 and MyoD protein and α-SMA (FIG. 2b).
Specifically, C2C12 cells were treated with halofuginone after TGF-β1 stimulation or no stimulation in the same manner as described in Example 2, and cell viability analysis was performed through CCK-8 analysis (FIGS. 3a and 3b), and Western blot analysis was performed in the same manner as described in Example 12 to confirm autocrine expression of p-Smad2, Smad2, TGF-β1, MyoD, collagen I protein and α-SMA (FIG. 3c). […]
(Immunoblotting shows a protein as a band on a membrane.)

For test [1], the system named is G93A mutant SOD1 transgenic mice. Description: Immunohistochemical analysis of knee joint synovial cavity in ALS animal model. The class given is in vivo, mouse. The protocol: As a control group, non-transgenic mice were injected intraperitoneally (i.p.) with vehicle (DMSO) in the same manner for the same period of time.
Specifically, the mice of Example 6 above were perfused with 4% paraformaldehyde (PFA) on 90 and 120 days of age, and the lumbar spinal cord and knee joints were separated. After fixation in 4% PFA for 24 hours, the knee joints were rinsed in running tap water for 24 hours and then incubated at 4° C. with continuous shaking in decalcifying solution (Calci-Clear, HS-104, National Diagnostics). The decalcification solution was replaced daily with fresh solution until the bones were easily penetrated with a needle, indicating completion of the decalcification process. Subsequently, the decalcified knee joints were rinsed in running tap water for 24 hours, and the spinal cord and knee joint samples were treated with 30% sucrose until they sank, followed by freeze protection, followed by successive cuts (14 μm). The lumbar spinal cord and knee joint tissue sections were washed three times with PBS and permeabilized with 0.5% Triton X-100 for 5 minutes. Subsequently, they were blocked with 5% bovine serum albumin (BSA) in 0.3% PBS-T at room temperature for 1 hour. The knee joint tissue sections were incubated with anti-TGF-β1 antibody (1:200; Santa Cruz, cat #sc130348), anti-α-SMA antibody (1:200; Abcam, cat #ab7817), anti-MyoD antibody (1:200; Santa Cruz, cat #sc377460), and anti-Collagen I antibody (1:200; Abcam, cat #ab21286) each, while the lumbar spinal cord sections were incubated with anti-GFAP antibody (1:200; Dako, cat #Z0334), anti-Iba1 antibody (1:200; Wako, cat #016)-20001), anti-TGF-β1 antibody (1:200; Santa Cruz, cat #sc130348), anti-TGF-β1 antibody (1:200; Abcam, cat #ab92486), and anti-IL-1β antibody (1:200; R&D Systems, cat #AF-401-NA) at 4° C. for an additional 24 hours. After washing the sections three times with PBS, they were incubated with Alexa Fluor secondary antibodies in a dark chamber at room temperature for 1 hour. […] Furthermore, analysis was performed using Leica Application Suite X software (Leica Microsystems).
Specifically, halofuginone was administered to G93A mutant SOD1 mice from the early onset of ALS (day 73) in the same manner as described in Example 6. Immunohistochemical analysis was performed on the knee joints of early-stage female and male mice (90 days old, FIGS. 7a and 7b) and late-stage female and male mice (120 days old, FIGS. 7c and 7d) in the same manner as described in <Example 8>.

[2] abbreviates: halofuginone 5 ng/ml and 10 ng/ml, 24 h after TGF-β1 stimulation (FIG. 3c).
Where [3] appears, read: 90 days old (early stage), females and males, vs DMSO TG group.
The mark [4] stands for this setting: 120 days old (late stage), vs DMSO TG group.

For `O=C(C[C@H]1NCCC[C@@H]1O)Cn1cnc2cc(Br)c(Cl)cc2c1=O` (racemic) [halofuginone], in the test on C2C12 cells (setting [2]), the “decrease in MyoD protein level by TGF-β1 stimulation” value was “significantly recovered”, the “increase in TGF-β1 protein level by TGF-β1 stimulation” value was “significantly reduced”, the “increase in collagen I protein level by TGF-β1 stimulation” value is recorded as “significantly reduced” and the “increase in p-Smad2/Smad2 ratio by TGF-β1 stimulation” value is recorded as “significantly reduced”. In addition, in the test on C2C12 cells (setting [2]), the “increase in α-SMA protein level by TGF-β1 stimulation” value is given as “significantly reduced”. In the test on C2C12 cells (low or high concentration halofuginone, 24 h after TGF-β1 stimulation (FIG. 4b)), the “TGF-β1, α-SMA, MyoD and collagen I protein expression, compared with the mRNA result” value is recorded as “the same”. Besides, the “increase in TGF-β in knee joint synovial cavity” value in test [1] (90 days old (early stage), females and males, 250 μg/kg i.p.) is given as “suppressed”. Also, in test [1] (setting [3]), the “Col-I expression in knee joint synovial cavity” value is recorded as “significantly lower” and the “α-SMA expression in knee joint synovial cavity” value is listed as “significantly lower”. For the same molecule, in test [1] (setting [4]), the “Col-I in the synovial cavity” value is “significantly lower”, the “MyoD in the synovial cavity” value was “higher”, the “TGF-β1 in the synovial cavity” value was “significantly lower” and the “α-SMA in the synovial cavity” value is “significantly lower”. Also, the “strength of TGF-β1, MyoD and Col-1 in the synovial cavity” value in test [1] (120 days old, female Hal TG group vs DMSO non-TG group) is “not different”. Moreover, the “strength of MyoD in the synovial cavity” value in test [1] (120 days old, male Hal TG group vs DMSO non-TG group) is “slightly increased”.
